Measurements published in US20050158391A1, “Azithromycin multiparticulate dosage forms by melt-congeal processes” (Pfizer Inc, priority 2003, published 2005).
Read-outs that look alike come from different tables or passages of the source.

Columns and labels:
[1] = Degree of acid/ester substitution [A] from Saponification Number; format: physicochemical; settings: for [A] degree of acid/ester substitution: Saponification Number (Pharmaceutical Excipients 2000) divided by 56.11
From the text: However, in most cases, the excipient candidate is not available in pure form, and may constitute a mixture of several primary molecular types as well as small amounts of impurities or degradation products that could be acids or esters. In addition, many excipient candidates are natural products or are derived from natural products that may contain a wide range of compounds, making the above calculations extremely difficult, if not impossible. […] The Saponification Number is the number of milligrams of potassium hydroxide required to neutralize or hydrolyze any acid or ester substituents present in 1 gram of the material. Measurement of the Saponification Number is a standard way to characterize many commercially available pharmaceutical excipients and the manufacturer often provides an excipient's Saponification Number. The Saponification Number will not only account for acid and ester substituents present on the excipient itself, but also for any such substituents present due to impurities or degradation products in the excipient. Thus, the Saponification Number will often provide a more accurate measure of the degree of acid/ester substitution in the excipient.
The degree of acid and ester substitution on a excipient can be calculated from the Saponification Number as follows. Dividing the Saponification Number by the molecular weight of potassium hydroxide, 56.11 g/mol, results in the number of millimoles of potassium hydroxide required to neutralize or hydrolyze any acid or ester substituents present in one gram of the excipient. Since one mole of potassium hydroxide will neutralize one equivalent of acid or ester substituents, dividing the Saponification Number by the molecular weight of potassium hydroxide also results in the number of meq of acid or ester substituents present in one gram of excipient.
For example, glyceryl monostearate can be obtained with a Saponification Number of 165, as specified by the manufacturer. Thus, the degree of acid/ester substitution per gram of glyceryl monostearate or its acid/ester concentration is 165÷56.11=2.9 meq/g excipient. Using the above example of a composition with 30 wt % azithromycin and 70 wt % glyceryl monostearate, the theoretical concentration of esters formed per gram of azithromycin if all of the azithromycin reacted would be 2.9 meq/g×70/30=6.8 meq/g.
This example illustrates how the degree of acid/ester substitution can be determined from the Saponification Number for an excipient. The degree of acid/ester substitution [A] for the excipients listed in Table 5 was determined by dividing by 56.11 the Saponification Number for the carrier as listed in Pharmaceutical Excipients 2000.
This example illustrates how the degree of acid/ester substitution can be determined from the Saponification Number for an excipient. The degree of acid/ester substitution for the excipients listed in Table 6 were determined by dividing by 56.11 the Saponification Number provided by the manufacturer.

[2] = cited from earlier work
[3] = Solubility of azithromycin dihydrate in molten excipient; format: physicochemical; settings: 65° C.
Method: The solubility of azithromycin dihydrate in beeswax was measured using the following procedure. A 5 g sample of beeswax was placed in a glass vial and melted at 65° C. by placing the vial in a hot-water bath. Crystals of azithromycin dihydrate were then slowly added to the molten wax, with stirring. The crystals first added dissolved into the wax. […] Thus, the solubility of azithromycin dihydrate in beeswax was determined to be about 6 wt %.
Using the procedure outlined in Screening Example 29, the solubility of azithromycin dihydrate in the excipients listed in Table 8 was determined at the temperatures listed therein. In addition, the solubility of azithromycin dihydrate was determined for mixtures of carriers in the weight ratios reported in Table 8.

[4] = as listed in Pharmaceutical Excipients 2000

| Compound | [A] degree of acid/ester substitution [1] | Saponification Number [2, 4] | solubility of azithromycin dihydrate in beeswax [3] | degree of acid/ester substitution (acid/ester concentration) ([1]; 165÷56.11) [meq/g excipient] | Saponification Number ([2]; as specified by the manufacturer (description example)) |
| --- | --- | --- | --- | --- | --- |
| sorbitan monostearate | 2.6-2.8 meq/g carrier | 147-157 |  |  |  |
| CCCCCCCC/C=C\CCCCCCCC(=O)OCC(O)CO (stereo not drawn) [glyceryl monooleate] | 2.9-3.0 meq/g carrier | 160-170 |  |  |  |
| CC[C@H]1OC(=O)[C@H](C)[C@@H](O[C@H]2C[C@@](C)(OC)[C@@H](O)[C@H](C)O2)[C@H](C)[C@@H](O[C@@H]2O[C@H](C)C[C@H](N(C)C)[C@H]2O)[C@](C)(O)C[C@@H](C)CN(C)[C@H](C)[C@@H](O)[C@]1(C)O [azithromycin dihydrate, 9a-aza-9a-methyl-9-deoxo-9a-homoerythromycin A] |  |  | about 6 wt % |  |  |
| CCCCCCCCCCCCCCCCO [cetyl alcohol] | <0.04 meq/g carrier | <2 |  |  |  |
| CCCCCCCCCCCCCCCCCC(=O)OCC(O)CO (stereo not drawn) [glyceryl monostearate] | 2.8-2.9 meq/g carrier | 155-165 |  | 2.9 | 165 |
| CCCCCCCCCCCCCCCCCCO [stearyl alcohol, 1-octadecanol] | <0.04 meq/g carrier | <2 |  |  |  |
| CCCCCCCCCCCCCCCCCC(=O)O [stearic acid, octadecanoic acid] | 3.6-3.9 meq/g carrier | 200-220 |  |  |  |
